From patent US20260262643A1, “HERBICIDAL BENZOXAZINES” (FMC CORPORATION, priority 2022, published 2026)

Assays:
ragweed [1] = assay: Test C preemergence; type: in vivo, Ambrosia artemisiifolia; details: 0 to 100 scale (0 no effect, 100 complete control); for Plant response rating, Ragweed: Preemergence, 500 g ai/ha, visual rating after 10 days; for Ragweed plant response rating: Test C, preemergence, 125 g ai/ha
Outline: (§1)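 Greenhouse herbicide screen, 10-day duration. Test chemicals in solvent/surfactant blend were sprayed onto soil at sowing (pre) or onto 2–10 cm seedlings at one to two leaves (post); injury scored visually against controls, 0 no effect to 100 complete control.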

soybean [2] = assay: Test C postemergence; type: in vivo, Glycine max; details: 10 days
Outline: as §1

barnyardgrass [3] = assay: Test D flooded paddy test; type: in vivo, Echinochloa crus-galli; details: 250 g ai/ha, applied to paddy water, visual rating after 13 to 14 days, scale 0 to 100 (0 no effect, 100 complete control)
Outline: (§2)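 Plants at the 2-leaf stage were grown in pots flooded to 3 cm, and compound was applied directly into the paddy water, with depth kept throughout. After 13–14 days in a greenhouse, injury was rated visually against untreated controls on a 0–100 scale (100 = complete control); a dash means not tested.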

ryegrass, Italian [4] = assay: Test C preemergence; type: in vivo, Lolium multiflorum; details: 0 to 100 scale (0 no effect, 100 complete control); for Plant response rating, Ryegrass, Italian: Preemergence, 500 g ai/ha, visual rating after 10 days; for Ryegrass, Italian plant response rating: Test C, preemergence, 125 g ai/ha
Outline: as §1

horseweed = assay: Test C postemergence; type: in vivo, Erigeron canadensis; details: 10 days
Outline: as §1

blackgrass [5] = assay: Test C preemergence; type: in vivo, Alopecurus myosuroides; details: 0 to 100 scale (0 no effect, 100 complete control); for Plant response rating, Blackgrass: Preemergence, 500 g ai/ha, visual rating after 10 days; for Blackgrass plant response rating: Test C, preemergence, 125 g ai/ha
Outline: as §1

ryegrass, Italian [6] = assay: Test C postemergence; type: in vivo, Lolium multiflorum; details: 10 days
Outline: as §1

sedge, umbrella = assay: Test D flooded paddy test; type: in vivo, Cyperus difformis; details: 250 g ai/ha, applied to paddy water, visual rating after 13 to 14 days, scale 0 to 100 (0 no effect, 100 complete control)
Outline: as §2

blackgrass [7] = assay: Test C postemergence; type: in vivo, Alopecurus myosuroides; details: 10 days
Outline: as §1

rice = assay: Test D flooded paddy test; type: in vivo, Oryza sativa; details: 250 g ai/ha, applied to paddy water, visual rating after 13 to 14 days, scale 0 to 100 (0 no effect, 100 complete control)
Outline: as §2

kochia [8] = assay: Test C preemergence; type: in vivo, Bassia scoparia; details: 0 to 100 scale (0 no effect, 100 complete control); for Plant response rating, Kochia: Preemergence, 500 g ai/ha, visual rating after 10 days; for Kochia plant response rating: Test C, preemergence, 125 g ai/ha
Outline: as §1

barnyardgrass [9] = assay: Test C preemergence; type: in vivo, Echinochloa crusgalli; details: 0 to 100 scale (0 no effect, 100 complete control); for Plant response rating, Barnyardgrass: Preemergence, 500 g ai/ha, visual rating after 10 days; for Barnyardgrass plant response rating: Test C, preemergence, 125 g ai/ha
Outline: as §1

soybean [10] = assay: Test C preemergence; type: in vivo, Glycine max; details: 0 to 100 scale (0 no effect, 100 complete control); for Plant response rating, Soybean: Preemergence, 500 g ai/ha, visual rating after 10 days; for Soybean plant response rating: Test C, preemergence, 125 g ai/ha
Outline: as §1

kochia [11] = assay: Test C postemergence; type: in vivo, Bassia scoparia; details: 10 days
Outline: as §1

green foxtail = assay: Test C preemergence; type: in vivo, Setaria viridis; details: 0 to 100 scale (0 no effect, 100 complete control); for Plant response rating, Foxtail, Green: Preemergence, 500 g ai/ha, visual rating after 10 days; for Foxtail, Green plant response rating: Test C, preemergence, 125 g ai/ha
Outline: as §1

pigweed, palmer [12] = assay: Test C preemergence; type: in vivo, Amaranthus palmeri; details: 0 to 100 scale (0 no effect, 100 complete control); for Plant response rating, Pigweed, Palmer: Preemergence, 500 g ai/ha, visual rating after 10 days; for Pigweed, Palmer plant response rating: Test C, preemergence, 125 g ai/ha
Outline: as §1

galium = assay: Test C postemergence; type: in vivo, Galium aparine; details: 10 days
Outline: as §1

oat, wild [13] = assay: Test C preemergence; type: in vivo, Avena fatua; details: 0 to 100 scale (0 no effect, 100 complete control); for Plant response rating, Oat, Wild: Preemergence, 500 g ai/ha, visual rating after 10 days; for Oat, Wild plant response rating: Test C, preemergence, 125 g ai/ha
Outline: as §1

wheat [14] = assay: Test C preemergence; type: in vivo, Triticum aestivum; details: 0 to 100 scale (0 no effect, 100 complete control); for Plant response rating, Wheat: Preemergence, 500 g ai/ha, visual rating after 10 days; for Wheat plant response rating: Test C, preemergence, 125 g ai/ha
Outline: as §1

pigweed, palmer [15] = assay: Test C postemergence; type: in vivo, Amaranthus palmeri; details: 10 days
Outline: as §1

oat, wild [16] = assay: Test C postemergence; type: in vivo, Avena fatua; details: 10 days
Outline: as §1

ducksalad = assay: Test D flooded paddy test; type: in vivo, Heteranthera limosa; details: 250 g ai/ha, applied to paddy water, visual rating after 13 to 14 days, scale 0 to 100 (0 no effect, 100 complete control)
Outline: as §2

ragweed [17] = assay: Test C postemergence; type: in vivo, Ambrosia artemisiifolia; details: 10 days
Outline: as §1

wheat [18] = assay: Test C postemergence; type: in vivo, Triticum aestivum; details: 10 days
Outline: as §1

corn [19] = assay: Test C postemergence; type: in vivo, Zea mays; details: 10 days
Outline: as §1

barnyardgrass [20] = assay: Test C postemergence; type: in vivo, Echinochloa crusgalli; details: 10 days
Outline: as §1

corn [21] = assay: Test C preemergence; type: in vivo, Zea mays; details: 0 to 100 scale (0 no effect, 100 complete control); for Plant response rating, Corn: Preemergence, 500 g ai/ha, visual rating after 10 days; for Corn plant response rating: Test C, preemergence, 125 g ai/ha
Outline: as §1

[22] = 125 g ai/ha, postemergence, 0 to 100 scale, 0 no effect, 100 complete control
[23] = Postemergence, 500 g ai/ha, visual 0 to 100 scale (0 no effect, 100 complete control)

COC[C@H]1CN(C(=O)c2cccc(-n3cnc(C(C)(C)O)n3)c2)c2cccc(Cl)c2O1 [Compound 253]
30: Oat, Wild plant response rating (oat, wild [13]) | Plant response rating, Barnyardgrass (barnyardgrass [20]; [23])
20: Ragweed plant response rating (ragweed [1]) | Plant response rating, Horseweed (horseweed; [23]) | Blackgrass plant response rating (blackgrass [5]) | Plant response rating, Wheat (wheat [18]; [22]) | Plant response rating, Corn (corn [19]; [22]) | Plant response rating, Barnyardgrass (barnyardgrass [20]; [22])
70: Plant response rating, Sedge, Umbrella (Flood) (sedge, umbrella) | Plant response rating, Pigweed, Palmer (pigweed, palmer [15]; [23]) | Plant response rating, Ragweed (ragweed [17]; [22]) | Plant response rating, Ragweed (ragweed [17]; [23]) | Plant response rating, Wheat (wheat [18]; [23])
50: Plant response rating, Blackgrass (blackgrass [5]) | Plant response rating, Ryegrass, Italian (ryegrass, Italian [6]; [22]) | Plant response rating, Ryegrass, Italian (ryegrass, Italian [6]; [23]) | Barnyardgrass plant response rating (barnyardgrass [9]) | Plant response rating, Wheat (wheat [14]) | Plant response rating, Oat, Wild (oat, wild [16]; [22])
0: Plant response rating, Barnyardgrass (Flood) (barnyardgrass [3]) | Plant response rating, Horseweed (horseweed; [22]) | Wheat plant response rating (wheat [14]) | Corn plant response rating (corn [21])
80: Plant response rating, Ragweed (ragweed [1]) | Plant response rating, Blackgrass (blackgrass [7]; [23]) | Plant response rating, Kochia (kochia [8]) | Plant response rating, Soybean (soybean [10]) | Plant response rating, Kochia (kochia [11]; [22]) | Plant response rating, Kochia (kochia [11]; [23]) | Foxtail, Green plant response rating (green foxtail) | Plant response rating, Corn (corn [19]; [23])
100: Plant response rating, Soybean (soybean [2]; [22]) | Plant response rating, Soybean (soybean [2]; [23]) | Plant response rating, Foxtail, Green (green foxtail) | Plant response rating, Pigweed, Palmer (pigweed, palmer [12]) | Plant response rating, Galium (galium; [22]) | Plant response rating, Galium (galium; [23])
40: Ryegrass, Italian plant response rating (ryegrass, Italian [4]) | Plant response rating, Blackgrass (blackgrass [7]; [22]) | Soybean plant response rating (soybean [10])
60: Plant response rating, Ryegrass, Italian (ryegrass, Italian [4]) | Kochia plant response rating (kochia [8]) | Plant response rating, Barnyardgrass (barnyardgrass [9])
85: Plant response rating, Ducksalad (Flood) (ducksalad)
90: Pigweed, Palmer plant response rating (pigweed, palmer [12]) | Plant response rating, Oat, Wild (oat, wild [13]) | Plant response rating, Oat, Wild (oat, wild [16]; [23])
10: Plant response rating, Rice (Flood) (rice) | Plant response rating, Corn (corn [21])

CCc1ncn(-c2ccc(OC)c(C(=O)N3C[C@H](COC)Oc4c(Cl)cccc43)c2)n1 [Compound 231]
60: Plant response rating, Horseweed (horseweed; [22]) | Blackgrass plant response rating (blackgrass [5]) | Barnyardgrass plant response rating (barnyardgrass [9]) | Soybean plant response rating (soybean [10])
15: Plant response rating, Barnyardgrass (Flood) (barnyardgrass [3])
90: Plant response rating, Ragweed (ragweed [1]) | Plant response rating, Ryegrass, Italian (ryegrass, Italian [4]) | Plant response rating, Horseweed (horseweed; [23]) | Plant response rating, Blackgrass (blackgrass [5]) | Plant response rating, Ryegrass, Italian (ryegrass, Italian [6]; [22]) | Plant response rating, Blackgrass (blackgrass [7]; [23]) | Kochia plant response rating (kochia [8]) | Plant response rating, Kochia (kochia [11]; [23]) | Plant response rating, Pigweed, Palmer (pigweed, palmer [15]; [22]) | Plant response rating, Pigweed, Palmer (pigweed, palmer [15]; [23]) | Plant response rating, Oat, Wild (oat, wild [16]; [23]) | Plant response rating, Wheat (wheat [18]; [23]) | Plant response rating, Corn (corn [19]; [23]) | Plant response rating, Barnyardgrass (barnyardgrass [20]; [23])
0: Plant response rating, Rice (Flood) (rice)
80: Plant response rating, Blackgrass (blackgrass [7]; [22]) | Plant response rating, Kochia (kochia [11]; [22]) | Plant response rating, Oat, Wild (oat, wild [13]) | Plant response rating, Wheat (wheat [14]) | Plant response rating, Barnyardgrass (barnyardgrass [20]; [22])
10: Corn plant response rating (corn [21])
30: Plant response rating, Corn (corn [21])
100: Plant response rating, Soybean (soybean [2]; [22]) | Plant response rating, Soybean (soybean [2]; [23]) | Plant response rating, Ryegrass, Italian (ryegrass, Italian [6]; [23]) | Plant response rating, Sedge, Umbrella (Flood) (sedge, umbrella) | Plant response rating, Kochia (kochia [8]) | Plant response rating, Barnyardgrass (barnyardgrass [9]) | Plant response rating, Foxtail, Green (green foxtail) | Foxtail, Green plant response rating (green foxtail) | Plant response rating, Pigweed, Palmer (pigweed, palmer [12]) | Pigweed, Palmer plant response rating (pigweed, palmer [12]) | Plant response rating, Galium (galium; [22]) | Plant response rating, Galium (galium; [23])
85: Plant response rating, Ducksalad (Flood) (ducksalad)
70: Ryegrass, Italian plant response rating (ryegrass, Italian [4]) | Plant response rating, Soybean (soybean [10]) | Plant response rating, Ragweed (ragweed [17]; [22]) | Plant response rating, Ragweed (ragweed [17]; [23]) | Plant response rating, Corn (corn [19]; [22])
50: Ragweed plant response rating (ragweed [1]) | Plant response rating, Oat, Wild (oat, wild [16]; [22]) | Plant response rating, Wheat (wheat [18]; [22])
40: Oat, Wild plant response rating (oat, wild [13]) | Wheat plant response rating (wheat [14])
